Test results taken from patent publication US9867790B2, “Compositions and methods using cuminaldehyde” (NESTEC S.A., priority 2013, dated 2018).
Like-named read-outs stand apart in the source and are kept apart here.

How the values were obtained:
TRPA1 [1] = molecular target: T1, TRPA1 (Homo sapiens, UniProt O75762); test: in vitro activation of TRPA1 in cells (FIG. 7); assay type: cell-based
T1 construct: expressed in transfected cells

TRPV1 [2] = molecular target: T2, TRPV1 (Homo sapiens, UniProt Q8NER1); test: in vitro activation of TRPV1 in cells (FIG. 7); assay type: cell-based; conditions: FIG. 7, triangles
T2 construct: expressed in transfected cells

"empty" cells = test: in vitro activation of "empty" cells (FIG. 7); assay type: cell-based
TRPA1 [3] = molecular target: T1, TRPA1; test: desensitization of TRPA1 by pretreatment before cinnamaldehyde (FIGS. 8A, 8B); assay type: cell-based; conditions: applied to cells fifteen minutes before cinnamaldehyde
Procedure: (§1) Specifically, cuminaldehyde was applied to cells fifteen minutes before cinnamaldehyde, icilin and capsaicin, which are specific agonists for TRPA1, TRPM8 and TRPV1 cation channels, respectively. After specific agonist application, the cation channel expression was measured. […] The left bars in each graph represent the controls lacking cuminaldehyde pretreatment, the right bars in each graph represent the samples including cuminaldehyde pretreatment.

TRPV1 [4] = molecular target: T2, TRPV1; test: desensitization of TRPV1 by pretreatment before capsaicin (FIGS. 8A, 8B); assay type: cell-based; conditions: applied to cells fifteen minutes before capsaicin
Procedure: as §1

TRPM8 [5] = molecular target: T3, TRPM8 (Homo sapiens, UniProt Q7Z2W7); test: in vitro activation of hTRPM8 in cells (FIG. 7); assay type: cell-based; design: expressed in transfected cells; conditions: FIG. 7, squares
TRPM8 [6] = molecular target: T3, TRPM8; test: desensitization of TRPM8 by pretreatment before icilin (FIGS. 8A, 8B); assay type: cell-based; design: host or cells: cells, not specified; conditions: applied to cells fifteen minutes before icilin
Procedure: as §1

mice [7] = test: body weight gain in mice with chronic ingestion (FIG. 3); assay type: in vivo; conditions: mice chronically fed high fat diet containing 0.2 wt %, vs same diet without
mice [8] = test: insulin sensitivity in mice with chronic ingestion (FIG. 4); assay type: in vivo; conditions: mice chronically fed high fat diet containing 0.2 wt %, vs same diet without
mice [9] = test: short term food intake after a single ingestion in mice (FIG. 5); assay type: in vivo; conditions: vs sham gavage
mice [10] = test: gastric emptying after a single ingestion in mice (FIG. 6); assay type: in vivo; conditions: vs sham gavage
TRPA1 [11] = conditions: read-out: EC50 of TRPA1 activation; cited from earlier work
TRPV1 [12] = molecular target: T2, TRPV1; conditions: cited from earlier work

T1 sequence (O75762 whole entry, species assumed): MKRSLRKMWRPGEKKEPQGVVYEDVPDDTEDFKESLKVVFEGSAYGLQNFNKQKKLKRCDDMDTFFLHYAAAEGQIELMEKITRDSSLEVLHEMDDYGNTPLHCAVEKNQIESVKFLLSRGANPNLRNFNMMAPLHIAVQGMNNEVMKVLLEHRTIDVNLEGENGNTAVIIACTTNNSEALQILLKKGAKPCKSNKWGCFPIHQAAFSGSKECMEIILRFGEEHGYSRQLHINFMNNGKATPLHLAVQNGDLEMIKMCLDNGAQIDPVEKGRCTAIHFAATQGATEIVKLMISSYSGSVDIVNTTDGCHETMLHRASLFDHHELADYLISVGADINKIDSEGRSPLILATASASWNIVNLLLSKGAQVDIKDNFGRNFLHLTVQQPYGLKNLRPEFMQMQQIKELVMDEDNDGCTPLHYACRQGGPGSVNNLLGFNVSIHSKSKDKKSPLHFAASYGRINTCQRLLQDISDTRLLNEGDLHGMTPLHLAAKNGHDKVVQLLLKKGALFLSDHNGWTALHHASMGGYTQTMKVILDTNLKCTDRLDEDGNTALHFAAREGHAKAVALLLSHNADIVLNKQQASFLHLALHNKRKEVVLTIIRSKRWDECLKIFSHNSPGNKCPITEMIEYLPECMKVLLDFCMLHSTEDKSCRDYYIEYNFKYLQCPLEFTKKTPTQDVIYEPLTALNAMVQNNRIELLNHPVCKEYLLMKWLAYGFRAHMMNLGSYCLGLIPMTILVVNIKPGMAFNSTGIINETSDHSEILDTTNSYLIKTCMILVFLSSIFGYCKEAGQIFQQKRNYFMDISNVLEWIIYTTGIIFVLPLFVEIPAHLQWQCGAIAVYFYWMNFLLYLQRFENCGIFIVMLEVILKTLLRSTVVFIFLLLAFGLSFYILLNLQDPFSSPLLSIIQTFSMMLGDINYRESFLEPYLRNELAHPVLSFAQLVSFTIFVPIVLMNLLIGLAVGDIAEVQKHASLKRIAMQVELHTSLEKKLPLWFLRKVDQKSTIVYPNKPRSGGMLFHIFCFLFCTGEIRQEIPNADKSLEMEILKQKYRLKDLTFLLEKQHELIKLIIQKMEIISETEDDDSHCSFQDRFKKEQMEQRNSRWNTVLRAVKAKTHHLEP
T2 sequence (Q8NER1 whole entry, species assumed): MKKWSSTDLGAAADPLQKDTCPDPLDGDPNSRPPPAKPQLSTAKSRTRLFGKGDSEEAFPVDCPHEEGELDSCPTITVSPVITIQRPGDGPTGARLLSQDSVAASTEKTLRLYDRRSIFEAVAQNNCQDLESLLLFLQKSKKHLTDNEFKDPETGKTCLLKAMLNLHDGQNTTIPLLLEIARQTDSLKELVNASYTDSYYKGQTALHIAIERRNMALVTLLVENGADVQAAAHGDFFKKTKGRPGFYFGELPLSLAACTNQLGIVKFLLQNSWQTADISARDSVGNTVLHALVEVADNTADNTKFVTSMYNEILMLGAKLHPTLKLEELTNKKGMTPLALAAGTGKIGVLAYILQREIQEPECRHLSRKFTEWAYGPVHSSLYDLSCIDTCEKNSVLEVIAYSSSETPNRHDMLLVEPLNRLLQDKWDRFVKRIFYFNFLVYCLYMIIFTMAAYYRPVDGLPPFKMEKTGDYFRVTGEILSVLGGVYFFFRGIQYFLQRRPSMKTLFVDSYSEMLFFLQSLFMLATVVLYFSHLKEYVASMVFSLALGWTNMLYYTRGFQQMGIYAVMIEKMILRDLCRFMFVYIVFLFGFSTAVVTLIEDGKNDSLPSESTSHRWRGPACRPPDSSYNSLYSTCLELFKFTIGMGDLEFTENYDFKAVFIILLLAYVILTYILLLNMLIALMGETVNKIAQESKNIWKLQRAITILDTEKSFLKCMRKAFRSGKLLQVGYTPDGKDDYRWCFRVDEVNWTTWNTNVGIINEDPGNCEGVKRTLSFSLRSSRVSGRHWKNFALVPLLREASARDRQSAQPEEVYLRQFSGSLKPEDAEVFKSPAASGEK
T3 sequence (Q7Z2W7 whole entry): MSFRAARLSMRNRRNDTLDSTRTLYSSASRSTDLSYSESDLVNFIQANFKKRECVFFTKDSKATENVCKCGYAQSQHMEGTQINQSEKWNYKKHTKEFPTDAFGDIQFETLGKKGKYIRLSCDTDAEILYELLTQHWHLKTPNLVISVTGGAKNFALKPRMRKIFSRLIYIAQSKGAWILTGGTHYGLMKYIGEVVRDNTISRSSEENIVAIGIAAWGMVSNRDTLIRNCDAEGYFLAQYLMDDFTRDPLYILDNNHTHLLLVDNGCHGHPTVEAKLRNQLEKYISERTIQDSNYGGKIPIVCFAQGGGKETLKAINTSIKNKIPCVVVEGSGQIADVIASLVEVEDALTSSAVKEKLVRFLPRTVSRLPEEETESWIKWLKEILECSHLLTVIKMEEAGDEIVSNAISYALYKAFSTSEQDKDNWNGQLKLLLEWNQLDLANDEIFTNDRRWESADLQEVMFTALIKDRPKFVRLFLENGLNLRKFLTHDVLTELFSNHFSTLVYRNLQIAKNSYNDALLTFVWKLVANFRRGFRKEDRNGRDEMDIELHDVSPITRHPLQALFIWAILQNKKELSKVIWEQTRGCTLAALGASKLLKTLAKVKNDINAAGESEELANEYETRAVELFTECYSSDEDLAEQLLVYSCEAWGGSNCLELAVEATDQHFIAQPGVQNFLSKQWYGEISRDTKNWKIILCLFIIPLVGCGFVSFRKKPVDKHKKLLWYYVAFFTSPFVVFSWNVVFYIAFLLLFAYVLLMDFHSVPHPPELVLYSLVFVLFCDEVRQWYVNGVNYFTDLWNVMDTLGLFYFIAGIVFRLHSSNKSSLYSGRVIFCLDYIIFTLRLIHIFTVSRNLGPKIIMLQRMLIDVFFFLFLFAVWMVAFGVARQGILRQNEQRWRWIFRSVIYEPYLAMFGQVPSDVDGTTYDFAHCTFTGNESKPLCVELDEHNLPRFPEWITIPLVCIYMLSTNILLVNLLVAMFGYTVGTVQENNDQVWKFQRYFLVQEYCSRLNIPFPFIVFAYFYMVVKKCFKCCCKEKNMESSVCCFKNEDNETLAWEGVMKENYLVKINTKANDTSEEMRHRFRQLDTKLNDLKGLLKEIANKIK

SMILES | activation of TRPA1 (TRPA1 [1]; FIG. 7, diamonds) | efficacy of TRPA1 activation relative to cinnamaldehyde (TRPA1 [1]; relative to known TRPA1 agonist cinnamaldehyde) | activation of TRPV1 (TRPV1 [2]) | activation of "empty" cells ("empty" cells) | desensitization of TRPA1 (TRPA1 [3]) | desensitization of TRPV1 (TRPV1 [4]) | activation of hTRPM8 (TRPM8 [5]) | desensitization of TRPM8 (TRPM8 [6]) | body weight gain (mice [7]) | insulin sensitivity (mice [8]) | short term food intake (mice [9]) | gastric emptying (mice [10]) | EC50 (TRPA1 [11]) | activation of TRPV1 (TRPV1 [12])
CC(C)c1ccc(C=O)cc1 [cuminaldehyde] | activated TRPA1 (diamonds) in a dose-dependent fashion | 140% | no activation was observed | no activation was observed | does not desensitize | does not desensitize | no activation was observed | does not desensitize |  |  |  |  |  | 
O=CC=Cc1ccccc1 [cinnamaldehyde] |  |  |  |  |  |  |  |  | gained less weight | improved insulin sensitivity | reduction in short term food intake | delayed gastric emptying | ~60 µM | not
